Results from publication PMC11790914, “Chemogenomics for steroid hormone receptors (NR3)” (Communications Chemistry, 2025).
Several values for one entry are separate records, joined by “and”; a condition that tells them apart may be missing. Equal entries are not always repeated.

Legend:
ABL1 = target: T1, ABL1 (Homo sapiens, UniProt P00519); experiment: Liability panel screening by DSF: ABL1; format: binding; conditions: DSF, 20 µM, n=2; read-out: Mean ΔTM ABL1
T1 construct: made in house
Procedure, shortened: (§1)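 ∆Tm in K was taken from Boltzmann-fitted unfolding inflection points, run in duplicate with a temperature ramp of 3 °C per minute up to 85 °C. Each recombinant protein (2 µM) was in HEPES 10 mM pH 7.5 and NaCl 500 mM, with SYPRO Orange dye at 1:1000.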

AURKA = target: T2, AURKA (Homo sapiens, UniProt O14965); experiment: Liability panel screening by DSF: AURKA; format: binding; conditions: DSF, 20 µM, n=2; read-out: Mean ΔTM AURKA
T2 construct: made in house
T2 sequence (O14965 1-403): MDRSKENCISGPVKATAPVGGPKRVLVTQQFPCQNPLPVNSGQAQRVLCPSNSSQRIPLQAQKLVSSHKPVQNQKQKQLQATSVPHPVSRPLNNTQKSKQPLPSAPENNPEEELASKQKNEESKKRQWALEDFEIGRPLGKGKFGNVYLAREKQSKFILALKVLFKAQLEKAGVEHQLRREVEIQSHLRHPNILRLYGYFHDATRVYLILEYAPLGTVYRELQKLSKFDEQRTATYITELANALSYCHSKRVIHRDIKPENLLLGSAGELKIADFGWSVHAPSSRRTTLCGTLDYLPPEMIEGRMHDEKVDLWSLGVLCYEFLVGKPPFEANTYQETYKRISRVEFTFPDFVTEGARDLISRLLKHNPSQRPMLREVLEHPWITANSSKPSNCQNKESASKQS
Procedure, shortened: as §1

CDK2 = target: T3, CDK2 (Homo sapiens, UniProt P24941); experiment: Liability panel screening by DSF: CDK2; format: binding; conditions: DSF, 20 µM, n=2; read-out: Mean ΔTM CDK2
T3 construct: made in house
Procedure, shortened: as §1

FGFR3 = target: T4, FGFR3 (Homo sapiens, UniProt P22607); experiment: Liability panel screening by DSF: FGFR3; format: binding; conditions: DSF, 20 µM, n=2; read-out: Mean ΔTM FGFR3
T4 construct: made in house
Procedure, shortened: as §1

BRD4 = target: T5, BRD4 (Homo sapiens, UniProt O60885); experiment: Liability panel screening by DSF: BRD4; format: binding; conditions: DSF, 20 µM, n=2; read-out: Mean ΔTM BRD4
T5 construct: This panel comprised ten highly ligandable kinases and bromodomains; made in house
Procedure, shortened: as §1

CSNK1D = target: T6, CSNK1D (Homo sapiens, UniProt P48730); experiment: Liability panel screening by DSF: CSNK1D; format: binding; conditions: DSF, 20 µM, n=2; read-out: Mean ΔTM CSNK1D
T6 construct: made in house
Procedure, shortened: as §1

MAPK1 = target: T7, MAPK1 (Homo sapiens, UniProt P28482); experiment: Liability panel screening by DSF: MAPK1; format: binding; conditions: DSF, 20 µM, n=2; read-out: Mean ΔTM MAPK1
T7 construct: made in house
Procedure, shortened: as §1

TRIM24 = target: T8, TRIM24 (Homo sapiens, UniProt O15164); experiment: Liability panel screening by DSF: TRIM24; format: binding; conditions: DSF, 20 µM, n=2; read-out: Mean ΔTM TRIM24
T8 construct: This panel comprised ten highly ligandable kinases and bromodomains; made in house
T8 sequence (O15164 899-1004 limits assumed): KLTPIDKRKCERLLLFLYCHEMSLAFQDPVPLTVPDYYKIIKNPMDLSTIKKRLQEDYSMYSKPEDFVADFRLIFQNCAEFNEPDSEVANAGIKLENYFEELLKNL
Procedure, shortened: as §1

[1] = system: NF-κB activity in HEK293 NF-κB reporter cells; experiment: NF-kB activity assay (GFP reporter, ionomycin/PMA); format: cell-based; conditions: for Mean NFκB response: n=3
Procedure, shortened: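 Reporter readout: GFP-expressing cells normalized to confluence, imaged every 90 min across 24 h after ionomycin (100 ng/mL)/PMA (10 ng/mL) stimulation of HEK293 cells pre-treated 4 h with compound (0.1% DMSO); triplicate independent experiments.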

[2] = system: ATF6 activity in Hela ATF6 reporter cells; experiment: Endoplasmic reticulum stress assay (ATF6 Renilla luciferase reporter, tunicamycin); format: cell-based
Procedure, shortened: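 ER stress was induced by 100 ng/mL tunicamycin added 4 h after compound (0.1% DMSO) to HeLa ATF6 reporter cells. After 18 h more, Renilla luciferase signal was read and expressed relative to DMSO control, n=5 biological replicates.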

HEK293T cells [3] = experiment: Cytotoxicity: metabolic activity (WST-8 / CCK-8 assay); conditions: HEK293T, 24 h, WST-8, normalized to 0.1% DMSO, single replicates
HEK293T cells [4] = experiment: Cytotoxicity: growth-rate (change in confluence over 24 h); conditions: normalized to 0.1% DMSO control, single replicates (n=1...)
HEK293T cells [5] = experiment: Cytotoxicity: apoptosis induction (caspase-3/7 DEVD fluorogenic DNA dye); conditions: HEK293T, 24 h; for Apoptosis induction [AI]: apoptotic cell count normalized to 0.1% DMSO, single replicates

T4 sequence (P22607 23-806, species assumed): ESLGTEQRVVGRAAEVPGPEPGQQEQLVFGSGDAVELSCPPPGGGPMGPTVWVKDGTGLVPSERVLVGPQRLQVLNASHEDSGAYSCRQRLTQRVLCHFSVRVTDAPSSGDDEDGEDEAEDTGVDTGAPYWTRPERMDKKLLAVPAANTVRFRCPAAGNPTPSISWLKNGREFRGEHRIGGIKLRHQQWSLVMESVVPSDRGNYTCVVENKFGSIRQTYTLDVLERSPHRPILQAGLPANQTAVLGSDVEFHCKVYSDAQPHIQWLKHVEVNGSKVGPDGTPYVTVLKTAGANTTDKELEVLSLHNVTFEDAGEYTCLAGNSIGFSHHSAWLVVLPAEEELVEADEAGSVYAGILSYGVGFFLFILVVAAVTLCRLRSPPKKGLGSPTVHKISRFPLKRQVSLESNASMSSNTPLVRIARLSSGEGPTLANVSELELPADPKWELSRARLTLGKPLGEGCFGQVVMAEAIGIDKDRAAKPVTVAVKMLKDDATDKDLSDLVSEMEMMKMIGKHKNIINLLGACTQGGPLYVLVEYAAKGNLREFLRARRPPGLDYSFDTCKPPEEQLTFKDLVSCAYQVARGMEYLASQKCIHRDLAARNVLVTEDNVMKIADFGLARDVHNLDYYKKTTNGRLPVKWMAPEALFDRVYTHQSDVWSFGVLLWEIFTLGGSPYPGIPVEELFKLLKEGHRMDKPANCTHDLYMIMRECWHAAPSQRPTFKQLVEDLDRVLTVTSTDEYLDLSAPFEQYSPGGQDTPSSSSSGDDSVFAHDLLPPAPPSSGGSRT
T6 sequence (P48730 whole entry, species assumed): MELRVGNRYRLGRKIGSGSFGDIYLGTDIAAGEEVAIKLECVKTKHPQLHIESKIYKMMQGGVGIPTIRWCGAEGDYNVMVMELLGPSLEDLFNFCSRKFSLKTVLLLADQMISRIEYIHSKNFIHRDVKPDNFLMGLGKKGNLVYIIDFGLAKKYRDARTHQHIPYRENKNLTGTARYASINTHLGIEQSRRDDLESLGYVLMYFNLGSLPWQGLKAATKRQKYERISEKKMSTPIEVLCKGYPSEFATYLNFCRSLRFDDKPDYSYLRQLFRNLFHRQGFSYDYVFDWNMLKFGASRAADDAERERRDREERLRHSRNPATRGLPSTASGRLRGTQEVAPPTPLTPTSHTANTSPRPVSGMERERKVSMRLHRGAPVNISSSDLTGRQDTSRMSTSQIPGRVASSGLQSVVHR
T7 sequence (P28482 whole entry, species assumed): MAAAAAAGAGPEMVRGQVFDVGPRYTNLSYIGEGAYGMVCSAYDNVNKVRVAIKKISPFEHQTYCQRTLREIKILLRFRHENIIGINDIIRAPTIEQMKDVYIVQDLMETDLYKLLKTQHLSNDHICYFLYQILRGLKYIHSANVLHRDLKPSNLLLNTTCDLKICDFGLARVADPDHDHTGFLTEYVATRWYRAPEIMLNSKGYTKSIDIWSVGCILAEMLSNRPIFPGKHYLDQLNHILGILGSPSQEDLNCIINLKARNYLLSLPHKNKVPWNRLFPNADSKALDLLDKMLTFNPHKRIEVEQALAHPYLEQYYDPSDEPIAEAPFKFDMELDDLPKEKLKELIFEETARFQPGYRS
T1 sequence (P00519 whole entry, species assumed): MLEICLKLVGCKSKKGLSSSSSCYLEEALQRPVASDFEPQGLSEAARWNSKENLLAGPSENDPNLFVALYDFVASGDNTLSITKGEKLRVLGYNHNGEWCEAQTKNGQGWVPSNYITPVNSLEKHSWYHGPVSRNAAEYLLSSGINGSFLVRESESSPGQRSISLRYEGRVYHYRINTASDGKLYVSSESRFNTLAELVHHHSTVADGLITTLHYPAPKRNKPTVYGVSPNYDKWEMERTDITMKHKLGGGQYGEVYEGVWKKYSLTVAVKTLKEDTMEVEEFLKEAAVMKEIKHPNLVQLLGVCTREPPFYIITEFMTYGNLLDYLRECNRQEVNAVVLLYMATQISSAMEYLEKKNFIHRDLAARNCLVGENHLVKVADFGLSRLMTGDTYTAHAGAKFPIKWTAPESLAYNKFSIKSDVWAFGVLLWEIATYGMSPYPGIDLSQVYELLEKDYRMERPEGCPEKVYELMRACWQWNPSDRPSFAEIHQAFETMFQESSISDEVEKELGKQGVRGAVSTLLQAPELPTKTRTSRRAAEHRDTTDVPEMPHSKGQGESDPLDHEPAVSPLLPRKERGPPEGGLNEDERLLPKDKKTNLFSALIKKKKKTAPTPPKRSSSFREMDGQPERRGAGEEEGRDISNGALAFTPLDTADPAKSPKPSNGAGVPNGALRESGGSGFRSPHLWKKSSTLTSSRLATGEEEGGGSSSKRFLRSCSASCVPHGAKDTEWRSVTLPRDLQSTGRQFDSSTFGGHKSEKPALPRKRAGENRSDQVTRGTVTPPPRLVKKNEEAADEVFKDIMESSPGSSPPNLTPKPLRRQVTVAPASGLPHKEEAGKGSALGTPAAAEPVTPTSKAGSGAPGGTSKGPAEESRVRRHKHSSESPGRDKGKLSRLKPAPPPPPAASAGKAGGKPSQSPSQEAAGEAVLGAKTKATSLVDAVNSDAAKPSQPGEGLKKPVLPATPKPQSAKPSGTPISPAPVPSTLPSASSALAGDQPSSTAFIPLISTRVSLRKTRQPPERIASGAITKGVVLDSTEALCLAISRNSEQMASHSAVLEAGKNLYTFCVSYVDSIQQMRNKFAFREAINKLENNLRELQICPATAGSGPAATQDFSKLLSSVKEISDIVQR

Which ΔTm at 20 µM (ABL1) does the source give for `C[C@@H]1Cc2c([nH]c3ccccc23)[C@@H](c2c(F)cc(/C=C/C(=O)O)cc2F)N1CC(C)(C)F` [AZD9496] here?
Its ΔTm at 20 µM is -0.24 °C.

What about the ΔTm at 20 µM (AURKA) of the same compound?
The ΔTm at 20 µM was -0.16 °C.

What about the ΔTm at 20 µM (CDK2) of the same compound?
Its ΔTm at 20 µM is -0.07 °C.

And the ΔTm at 20 µM (FGFR3)?
The ΔTm at 20 µM was 0.58 °C.

And the ΔTm at 20 µM (BRD4)?
The ΔTm at 20 µM was 0.36 °C.

And the ΔTm at 20 µM (CSNK1D)?
The ΔTm at 20 µM was 0.64 °C.

And the ΔTm at 20 µM (MAPK1)?
The ΔTm at 20 µM was 0.55 °C.

What about the ΔTm at 20 µM (TRIM24) of the same compound?
The ΔTm at 20 µM was -0.62 °C.

What about the “Mean NFκB response” value ([1]; 1 µM, 1,5 h) of the same compound?
The value was 3183.32 GFP+-cells/confluence ∙ 1000.

What about the “Mean NFκB response” value ([1]; 1 µM, 4,5 h) of the same compound?
The value was 3743.71 GFP+-cells/confluence ∙ 1000.

What about the “Mean NFκB response” value ([1]; 1 µM, 7,5 h) of the same compound?
Its value is 6968.05 GFP+-cells/confluence ∙ 1000.

And the “Mean NFκB response” value ([1]; 1 µM, 10,5 h)?
Its value is 12962.04 GFP+-cells/confluence ∙ 1000.

And the “Mean NFκB response” value ([1]; 1 µM, 13,5 h)?
The value was 18218.90 GFP+-cells/confluence ∙ 1000.

What about the “Mean NFκB response” value ([1]; 1 µM, 16,6 h) of the same compound?
The value was 22070.92 GFP+-cells/confluence ∙ 1000.

What about the “Mean NFκB response” value ([1]; 1 µM, 19,5 h) of the same compound?
The value was 24828.05 GFP+-cells/confluence ∙ 1000.

And the “Mean NFκB response” value ([1]; 1 µM, 22,5 h)?
The value was 27011.69 GFP+-cells/confluence ∙ 1000.

What about the “Mean NFκB response” value ([1]; 1 µM, 3 h) of the same compound?
The value was 3319.11 GFP+-cells/confluence ∙ 1000.

And the “Mean NFκB response” value ([1]; 1 µM, 6 h)?
Its value is 4897.81 GFP+-cells/confluence ∙ 1000.

And the “Mean NFκB response” value ([1]; 1 µM, 9 h)?
Its value is 10141.67 GFP+-cells/confluence ∙ 1000.

What about the “Mean NFκB response” value ([1]; 1 µM, 12 h) of the same compound?
Its value is 15818.86 GFP+-cells/confluence ∙ 1000.

And the “Mean NFκB response” value ([1]; 1 µM, 15 h)?
The value was 20214.01 GFP+-cells/confluence ∙ 1000.

And the “Mean NFκB response” value ([1]; 1 µM, 18 h)?
The value was 23720.26 GFP+-cells/confluence ∙ 1000.

What about the “Mean NFκB response” value ([1]; 1 µM, 21 h) of the same compound?
Its value is 26076.44 GFP+-cells/confluence ∙ 1000.

And the “Mean NFκB response” value ([1]; 1 µM, 24 h)?
Its value is 27738.19 GFP+-cells/confluence ∙ 1000.

What about the “NF-κB activity (inflammatory response to ionomycin/PMA)” value ([1]; HEK293 NF-κB reporter cells, compounds at recommended concentrations, imaged over 24 h, n = 3) of the same compound?
Its value is “reducing the inflammatory response”.

What about the activity at 1 µM ([2]; Homo sapiens, HeLa, 1 µM, single replicates n=1 to n=5, read-out: ER stress [rel. ATF6 activity]) of the same compound?
Its activity at 1 µM is 101%.

And the “Metabolic activity [MA]” value (HEK293T cells [3]; 1 µM)?
The value was 1.04 (3×) and 1.02 and 0.97 and 0.99 and 1.00 (2×).

And the “Growth rate [GR]” value (HEK293T cells [4]; 1 µM)?
The value was 1.04 and 0.96 and 0.95 and 1.23 and 0.78 and 0.74 (3×) and 1.43 and 4.43.

And the “Apoptosis induction [AI]” value (HEK293T cells [5]; 1 µM)?
The value was 0.64 and 1.56 and 0.90 and 1.15 and 1.90 and 3.05.

And the apoptosis induction (HEK293T cells [5]; budesonide (3 µM), others at tested concentration)?
Its apoptosis induction is “slight apoptosis induction”.

Which results are given for `CCN(CC)c1ccc(/C=N/NC(=O)c2ccc(O)cc2)cc1` [DY131]?
ΔTm at 20 µM (ABL1): 0.66 °C; ΔTm at 20 µM (AURKA): -2.05 °C; ΔTm at 20 µM (CDK2): 0.35 °C; ΔTm at 20 µM (FGFR3): 0.00876 °C; ΔTm at 20 µM (BRD4): -0.92 °C; ΔTm at 20 µM (CSNK1D): -0.0354 °C; ΔTm at 20 µM (MAPK1): 0.23 °C; ΔTm at 20 µM (TRIM24): -3.28 °C; Mean NFκB response ([1]; 3 µM, 1,5 h): 3734.45 GFP+-cells/confluence ∙ 1000; Mean NFκB response ([1]; 3 µM, 4,5 h): 4226.03 GFP+-cells/confluence ∙ 1000; Mean NFκB response ([1]; 3 µM, 7,5 h): 9363.33 GFP+-cells/confluence ∙ 1000; Mean NFκB response ([1]; 3 µM, 10,5 h): 20103.33 GFP+-cells/confluence ∙ 1000; Mean NFκB response ([1]; 3 µM, 13,5 h): 29726.67 GFP+-cells/confluence ∙ 1000; Mean NFκB response ([1]; 3 µM, 16,6 h): 36476.67 GFP+-cells/confluence ∙ 1000; Mean NFκB response ([1]; 3 µM, 19,5 h): 41143.33 GFP+-cells/confluence ∙ 1000; Mean NFκB response ([1]; 3 µM, 22,5 h): 44036.67 GFP+-cells/confluence ∙ 1000; Mean NFκB response ([1]; 3 µM, 3 h): 4084.29 GFP+-cells/confluence ∙ 1000; Mean NFκB response ([1]; 3 µM, 6 h): 5799.09 GFP+-cells/confluence ∙ 1000; Mean NFκB response ([1]; 3 µM, 9 h): 14733.33 GFP+-cells/confluence ∙ 1000; Mean NFκB response ([1]; 3 µM, 12 h): 25326.67 GFP+-cells/confluence ∙ 1000; Mean NFκB response ([1]; 3 µM, 15 h): 33133.33 GFP+-cells/confluence ∙ 1000; Mean NFκB response ([1]; 3 µM, 18 h): 38383.33 GFP+-cells/confluence ∙ 1000; Mean NFκB response ([1]; 3 µM, 21 h): 42820.00 GFP+-cells/confluence ∙ 1000; Mean NFκB response ([1]; 3 µM, 24 h): 45096.67 GFP+-cells/confluence ∙ 1000; ATF6 activity (tunicamycin-induced endoplasmic reticulum stress) ([2]; Hela ATF6 reporter cells, tunicamycin 100 ng/mL, 18 h, compounds at recommended concentrations, n = 5): strongly ameliorated the tunicamycin-induced endoplasmic reticulum stress; activity at 3 µM ([2]; Homo sapiens, HeLa, 3 µM, single replicates n=1 to n=5, read-out: ER stress [rel. ATF6 activity]): 25%; Metabolic activity [MA] (HEK293T cells [3]; 3 µM): 0.98 and 0.95 (2×) and 0.82 and 0.96 and 0.93 and 0.87 and 0.92; Growth rate [GR] (HEK293T cells [4]; 3 µM): 0.59 and 11.37 and 0.74 and 0.90 and 0.70 and 0.29 and 0.57 and 4.91 and 1.76 and 192.70; Apoptosis induction [AI] (HEK293T cells [5]; 3 µM): -15.91 and -17.65 and -9.63 and -8.53 and 1.25 and 1.40
